Experimental data taken from US9221746B2, “Homo- and hetero-polyamino-acid derivatives of fullerene C60, method for producing same, and pharmaceutical compositions based on said derivatives” (priority 2011, dated 2015).
Like-named read-outs stand apart in the source and are kept apart here. Marks after values point to notes of the source that are not given here.

How the values were obtained:
[1] = system: type 1 human immunodeficiency virus; test: Antiviral activity on HIV-1 infected human cell model; format: cell-based; conditions: for Cell survival rate, % / Number of cells × 10^3/mL / CPE/syncytia (+): HIV-1 infected cells; for CPE/syncytia (+): four-plus system
[2] = system: A/IIV-Moscow/01/2009 (H1N1)swl influenza virus; test: Reduction of influenza virus reproduction in MDCK cell culture (ELISA); format: cell-based; conditions: for Percent reduction of influenza virus reproduction in MDCK cell culture relative to control, average values: average of the three experiments
Protocol: The agent was diluted with DMSO (5 mg substance+0.5 mL DMSO), followed by addition of 4.5 mL MEM cell cultural medium to obtain in this way a stock solution with a concentration of 1.0 […].
The antiviral activity was ascertained from the reduction of influenza virus reproduction in the MDCK cell culture, as recognized by ELISA.
For this purpose, MDCK cells were grown on 96-well plates to obtain a complete monolayer, washed from the growth medium, and added with substances in a twofold concentration in 100 mcL MEM medium. Infection with the virus in a working dose ranging from 100 to 1000 TCD50 was carried out in two protocols: 2 hours following the insertion of the substances and simultaneously. The plates were incubated in a thermostat filled with CO2 for 24 hours at 37° C. Following the incubation, the medium was removed and cells were fixed by 80% acetone in PBS for 15 minutes and then well dried, and ELISA was performed by consecutive adsorption of specific reagents, namely, monoclonal antibodies, conjugate, and substrate (orthophenylenediamine). The degree of reaction was monitored by measuring optical density at 492 nm on a Biokom spectrophotometer. Each virus dilution was studied in three replicas, for which an average optical density (OD) value was calculated. Percent inhibition was determined as the quotient of the difference between the experimental OD and the OD of the cell control, divided by the difference between the OD of the virus control and the OD of the cell control, multiplied by 100%. The data gained in this way were used to determine the minimal concentration of the agent causing the 50.0% inhibition of viral reproduction (MIC50).
The inhibition of A(H1N1) influenza virus replication was ascertained in three experiments with different multiplicities of infection.

L1210 leukemia = format: in vivo, mice; conditions: for ILT, %: increase in lifetime compared to the control; for Average body weight gain, M ± m / Percent inhibition relative to control / Average weight gain, M ± m: ascite development
Protocol: (§1) These studies were carried out at the Institute for Toxicology, St. Petersburg, 2006, according to “Guidelines for the Study of Antitumor Activity of Pharmacological Agents” (“Manual on Experimental (Preclinical) Study of New Pharmacological Agents,” Ministry of Public Health of the Russian Federation, Remedium, Moscow, 2000, pp. 319-325).
(§2) The L1210 leukemia, breast adenocarcinoma Ca-755, and Lewis carcinoma (3LL) tumor cell strain were purchased from the Petrov Research Institute for Oncology, the Ministry of Public Health of the Russian Federation (St. Petersburg).
DBA/2 line mice with transplanted L1210 leukemia cells. Mouse ages: 6 to 8 weeks; body weights: 19 to 25 g.
(§3) The antitumor effect was ascertained through the following parameters: • ascite accumulation as animal body weight gain; • the lifetime of animals; and • tumor growth. The larger dimension of the tumor (length) and the smaller dimension normal thereto (width) were measured. The tumor volume was calculated, and the inhibition of tumor growth was calculated by a formula. The ascertainment criterion was the day when each individual tumor reached a volume of 500 mm^3.
During the experiment, the animals were weighed daily with the goal of evaluating ascite accumulation and studying the agents compared on this process.

[3] = system: breast adenocarcinoma Ca-755; format: in vivo, mice; conditions: for ILT, %: increase in lifetime compared to the control
Protocol: as §1, §2
C 57 BL/6J line male mice with transplanted Ca-755 cells. Mouse ages: 6 to 8 weeks; body weights: 19 to 25 g.
as §3

## Fullerene Poly(Aminocaproic Acid) of Formula C60(H3){NH(CH2)5COO—}3{NH3^+(CH2)5COOH}3 [Agent No. 1]
[1]; 0.5 mcg/mL
  Cell survival rate, %: 18%
  Number of cells × 10^3/mL: 33 × 10^3/mL
  CPE/syncytia (+): 4.0 (+)
[1]; 1.0 mcg/mL
  Cell survival rate, %: 26%
  Number of cells × 10^3/mL: 495 × 10^3/mL
  CPE/syncytia (+): 4.0 (+)
[1]; 5.0 mcg/mL
  Cell survival rate, %: 98%
  Number of cells × 10^3/mL: 633 × 10^3/mL
  CPE/syncytia (+): 0 (+)
[1]; 10 mcg/mL
  Cell survival rate, %: 98%
  Number of cells × 10^3/mL: 600 × 10^3/mL
  CPE/syncytia (+): 0 (+)
[1]; type 1 human immunodeficiency virus
  EC50 (50% effective concentration): 0.9 µg/mL
[2]; 6.25 mcg/mL, 2 h prior to infection, 1st value of cell (experiments with different multiplicities of infection)
  Percent (%) reduction of influenza virus reproduction in MDCK cell culture relative to control: 27.0%
[2]; 6.25 mcg/mL, 2 h prior to infection, 2nd value of cell
  Percent (%) reduction of influenza virus reproduction in MDCK cell culture relative to control: 28.0%
[2]; 6.25 mcg/mL, 2 h prior to infection, 3rd value of cell
  Percent (%) reduction of influenza virus reproduction in MDCK cell culture relative to control: 0%
[2]; 6.25 mcg/mL, 2 h prior to infection
  Percent reduction of influenza virus reproduction in MDCK cell culture relative to control, average values: 18.0%
[2]; 6.25 mcg/mL, simultaneously with infection, 1st value of cell
  Percent (%) reduction of influenza virus reproduction in MDCK cell culture relative to control: 18.0%
[2]; 6.25 mcg/mL, simultaneously with infection, 2nd value of cell
  Percent (%) reduction of influenza virus reproduction in MDCK cell culture relative to control: 0%
[2]; 6.25 mcg/mL, simultaneously with infection, 3rd value of cell
  Percent (%) reduction of influenza virus reproduction in MDCK cell culture relative to control: 0%
[2]; 6.25 mcg/mL, simultaneously with infection
  Percent reduction of influenza virus reproduction in MDCK cell culture relative to control, average values: 6.0%
[2]; 12.5 mcg/mL, 2 h prior to infection, 1st value of cell
  Percent (%) reduction of influenza virus reproduction in MDCK cell culture relative to control: 47.0%
[2]; 12.5 mcg/mL, 2 h prior to infection, 2nd value of cell
  Percent (%) reduction of influenza virus reproduction in MDCK cell culture relative to control: 74.0%
[2]; 12.5 mcg/mL, 2 h prior to infection, 3rd value of cell
  Percent (%) reduction of influenza virus reproduction in MDCK cell culture relative to control: 9.5%
[2]; 12.5 mcg/mL, 2 h prior to infection
  Percent reduction of influenza virus reproduction in MDCK cell culture relative to control, average values: 44.0%
[2]; 12.5 mcg/mL, simultaneously with infection, 1st value of cell
  Percent (%) reduction of influenza virus reproduction in MDCK cell culture relative to control: 39.0%
[2]; 12.5 mcg/mL, simultaneously with infection, 2nd value of cell
  Percent (%) reduction of influenza virus reproduction in MDCK cell culture relative to control: 13.0%
[2]; 12.5 mcg/mL, simultaneously with infection, 3rd value of cell
  Percent (%) reduction of influenza virus reproduction in MDCK cell culture relative to control: 0%
[2]; 12.5 mcg/mL, simultaneously with infection
  Percent reduction of influenza virus reproduction in MDCK cell culture relative to control, average values: 26%
[2]; 25.0 mcg/mL, 2 h prior to infection, 1st value of cell
  Percent (%) reduction of influenza virus reproduction in MDCK cell culture relative to control: 41.0%
[2]; 25.0 mcg/mL, 2 h prior to infection, 2nd value of cell
  Percent (%) reduction of influenza virus reproduction in MDCK cell culture relative to control: 79.0%
[2]; 25.0 mcg/mL, 2 h prior to infection, 3rd value of cell
  Percent (%) reduction of influenza virus reproduction in MDCK cell culture relative to control: 12%
[2]; 25.0 mcg/mL, 2 h prior to infection
  Percent reduction of influenza virus reproduction in MDCK cell culture relative to control, average values: 44.0%
[2]; 25.0 mcg/mL, simultaneously with infection, 1st value of cell
  Percent (%) reduction of influenza virus reproduction in MDCK cell culture relative to control: 40.0%
[2]; 25.0 mcg/mL, simultaneously with infection, 2nd value of cell
  Percent (%) reduction of influenza virus reproduction in MDCK cell culture relative to control: 0%
[2]; 25.0 mcg/mL, simultaneously with infection
  Percent reduction of influenza virus reproduction in MDCK cell culture relative to control, average values: 20.0%
[2]; 50.0 mcg/mL, 2 h prior to infection, 1st value of cell
  Percent (%) reduction of influenza virus reproduction in MDCK cell culture relative to control: 28.0%
[2]; 50.0 mcg/mL, 2 h prior to infection, 2nd value of cell
  Percent (%) reduction of influenza virus reproduction in MDCK cell culture relative to control: 72.0%
[2]; 50.0 mcg/mL, 2 h prior to infection, 3rd value of cell
  Percent (%) reduction of influenza virus reproduction in MDCK cell culture relative to control: 31.0%
[2]; 50.0 mcg/mL, 2 h prior to infection
  Percent reduction of influenza virus reproduction in MDCK cell culture relative to control, average values: 44.0%
[2]; 50.0 mcg/mL, simultaneously with infection, 1st value of cell
  Percent (%) reduction of influenza virus reproduction in MDCK cell culture relative to control: 33.0%
[2]; 50.0 mcg/mL, simultaneously with infection, 2nd value of cell
  Percent (%) reduction of influenza virus reproduction in MDCK cell culture relative to control: 10.0%
[2]; 50.0 mcg/mL, simultaneously with infection
  Percent reduction of influenza virus reproduction in MDCK cell culture relative to control, average values: 22.0%
[2]; 100.0 mcg/mL, 2 h prior to infection, 1st value of cell
  Percent (%) reduction of influenza virus reproduction in MDCK cell culture relative to control: 4.0%
[2]; 100.0 mcg/mL, 2 h prior to infection, 2nd value of cell
  Percent (%) reduction of influenza virus reproduction in MDCK cell culture relative to control: 0%
[2]; 100.0 mcg/mL, 2 h prior to infection, 3rd value of cell
  Percent (%) reduction of influenza virus reproduction in MDCK cell culture relative to control: 20.0%
[2]; 100.0 mcg/mL, 2 h prior to infection
  Percent reduction of influenza virus reproduction in MDCK cell culture relative to control, average values: 8%
[2]; 100.0 mcg/mL, simultaneously with infection, 1st value of cell
  Percent (%) reduction of influenza virus reproduction in MDCK cell culture relative to control: 29.0%
[2]; 100.0 mcg/mL, simultaneously with infection, 2nd value of cell
  Percent (%) reduction of influenza virus reproduction in MDCK cell culture relative to control: 28.0%
[2]; 100.0 mcg/mL, simultaneously with infection
  Percent reduction of influenza virus reproduction in MDCK cell culture relative to control, average values: 29.0%
[2]; different dilutions of the agent
  reproduction inhibitory activity in the MDCK cell culture: high reproduction inhibitory activity
L1210 leukemia; 100 mg/kg
  ALT in days, M ± m: 10.7 ± 37 days
  ILT, %: 78.33%
L1210 leukemia; 100 mg/kg, listed as agent
  ALT in days, M ± m: 10.7 ± 0.37 days
L1210 leukemia; 200 mg/kg
  average lifetime: 10.60 ± 0.37 days
  percent increase in lifetime compared to the control: 76.67%
L1210 leukemia; 250 mg/kg
  ALT in days, M ± m: 10.60 ± 37 days
  ILT, %: 76.67%
L1210 leukemia; 250 mg/kg versus 100 mg/kg
  factor by which average body weight gain is lower at 250 mg/kg than at 100 mg/kg: 1.5
L1210 leukemia; 100 mg/kg, day 1
  Average body weight gain, M ± m: 0.3 ± 0.2
L1210 leukemia; 100 mg/kg, day 2
  Average body weight gain, M ± m: 0.8 ± 0.4
L1210 leukemia; 100 mg/kg, day 3
  Average body weight gain, M ± m: 2.5 ± 0.5
  Percent inhibition relative to control: 50.0%*
L1210 leukemia; 100 mg/kg, day 4
  Average body weight gain, M ± m: 4.2 ± 1.0
  Percent inhibition relative to control: 63.2%*
L1210 leukemia; 100 mg/kg, day 5
  Average body weight gain, M ± m: 8.4 ± 1.2
  Percent inhibition relative to control: 48.5%*
L1210 leukemia; 100 mg/kg, day 6
  Average body weight gain, M ± m: 12.1 ± 2.1
  Percent inhibition relative to control: 42.9%*
L1210 leukemia; 100 mg/kg, day 7
  Average body weight gain, M ± m: 14.2 ± 2.2
  Percent inhibition relative to control: 46.0%*
L1210 leukemia; 250 mg/kg, day 1
  Average weight gain, M ± m: 0.3 ± 0.1
L1210 leukemia; 250 mg/kg, day 2
  Average weight gain, M ± m: 0.5 ± 0.3
L1210 leukemia; 250 mg/kg, day 3
  Average weight gain, M ± m: 1.1 ± 0.4
  Percent inhibition relative to control: 78.0%*
L1210 leukemia; 250 mg/kg, day 4
  Average weight gain, M ± m: 2.8 ± 0.9
  Percent inhibition relative to control: 75.4%*
L1210 leukemia; 250 mg/kg, day 5
  Average weight gain, M ± m: 4.7 ± 1.2
  Percent inhibition relative to control: 71.2%*
L1210 leukemia; 250 mg/kg, day 6
  Average weight gain, M ± m: 8.4 ± 1.6
  Percent inhibition relative to control: 60.4%*
L1210 leukemia; 250 mg/kg, day 7
  Average weight gain, M ± m: 10.0 ± 1.3
  Percent inhibition relative to control: 62.0%*
L1210 leukemia; mouse, in vivo
  intoxication signatures: No intoxication signatures were detected
[3]; 100 mg/kg
  ALT in days, M ± m: 71.9 ± 2.58 days
  ILT, %: 89.71%
[3]; 100 mg/kg, listed as agent
  ALT in days, M ± m: 71.9 ± 2.58 days
[3]; 200 mg/kg
  average lifetime: 73.4+0.92 days
  percent increase in lifetime compared to the control: 93.67%
[3]; 250 mg/kg
  ALT in days, M ± m: 73.40 ± 0.92 days
  ILT, %: 93.67%
[3]; mouse, in vivo
  intoxication signatures: No intoxication signatures were detected
